Measurements published in patent publication US20110262457A1, “MODULATION OF THE IMMUNE RESPONSE” (priority 2008, published 2011).
“Also recorded” adds a separate entry of the source.

Experiments:
[1] = test system: EAE mice; experiment: EAE model (MOG35-55 peptide in CFA), FICZ treatment; type: in vivo
Procedure: FIG. 2A is a line graph showing development of EAE on FICZ^− or control-treated mice (mean EAE score+s.e.m.)
FIG. 2B is a pair of bar graphs showing cytokine secretion (pg/ml) triggered by MOG35-55 in splenocytes taken from FICZ or control-treated mice; left, IFNgamma, right, IL-17.
FIGS. 2C-2E are each pairs of FACS plots showing the frequency of IFNγ, (2C), IL-17 (2D) or Foxp3 (2E) in splenocytes from FICZ or control-treated mice.
The effects of FICZ were evaluated in vivo using the EAE model described in PCT International Patent Application NO. PCT/US2008/083016, and U.S. Provisional Patent Application Ser. No. 60/989,309, filed on Nov. 20, 2007.
Mice were treated with PBS (control) or […], immunized with MOG35-55 peptide in CFA and monitored for EAE development.

[2] = test system: CD4+Foxp3:GFP- T cells; experiment: Conversion of CD4+Foxp3:GFP- T cells into Treg with antibodies to CD3 and CD28 and TGFb1; type: cell-based; settings: in vitro, anti-CD3/CD28, TGFβ1, FIGS. 1A, 1B
Source text: FIG. 1A is a set of three FACS plots showing conversion of CD4^+Foxp3:GFP^− T cells into CD4^+Foxp3:GFP^+ Treg by stimulation with antibodies to CD3 and CD28 in the presence of TGFb1 with or without FICZ; FIG. 1b; FIG. 1B presents the data in bar graph format. FIG. 1C is a bar graph showing AHR expression in naïve T cells differentiated in vitro into TH1, TH2 or TH17 cells for four days (mean+s.d. of triplicates normalized to actin expression). FIG. 1D is a bar graph showing AHR expression in naïve T cells differentiated in vitro into TH17 for four days with the indicated cytokines (mean+s.d. of triplicates normalized to actin expression). FIG. 1E is a bar graph showing RORγt expression in naïve T cells differentiated into TH17 for four days with TGFβ1 and IL-6 alone or in combination with FICZ (mean+s.d. of triplicates normalized to actin expression). FIG. 1F is a set of nine FACS plots of frequency of IL-17^+ T cells differentiated with TGFβ1 and IL-6 alone or in combination with IL-23 and/or FICZ for four days. FIG. 1G is a bar graph showing IL-17 and FIG. 1H is a pair of bar graphs showing IL-21 (left) and IL-22 (right) levels in supernatants of cultures prepared as in 1E, as measured by ELISA after 4 days of differentiation into. […]

[3] = test system: naive T cells; experiment: In vitro TH17 differentiation of naive T cells with TGFβ1 and IL-6 (with or without IL-23); type: cell-based
Source text: FIG. 1A is a set of three FACS plots showing conversion of CD4^+Foxp3:GFP^− T cells into CD4^+Foxp3:GFP^+ Treg by stimulation with antibodies to CD3 and CD28 in the presence of TGFb1 with or without FICZ; FIG. 1b; FIG. 1B presents the data in bar graph format. FIG. 1C is a bar graph showing AHR expression in naïve T cells differentiated in vitro into TH1, TH2 or TH17 cells for four days (mean+s.d. of triplicates normalized to actin expression). FIG. 1D is a bar graph showing AHR expression in naïve T cells differentiated in vitro into TH17 for four days with the indicated cytokines (mean+s.d. of triplicates normalized to actin expression). FIG. 1E is a bar graph showing RORγt expression in naïve T cells differentiated into TH17 for four days with TGFβ1 and IL-6 alone or in combination with FICZ (mean+s.d. of triplicates normalized to actin expression). FIG. 1F is a set of nine FACS plots of frequency of IL-17^+ T cells differentiated with TGFβ1 and IL-6 alone or in combination with IL-23 and/or FICZ for four days. FIG. 1G is a bar graph showing IL-17 and FIG. 1H is a pair of bar graphs showing IL-21 (left) and IL-22 (right) levels in supernatants of cultures prepared as in 1E, as measured by ELISA after 4 days of differentiation into.
Next, the effect of AHR activation by FICZ on in vitro TH17 differentiation was investigated using the TH17 transcription factor RORyt as a marker of TH17 differentiation.

[4] = test system: EAE mice; experiment: EAE in C57BL/6 mice treated weekly with AHR-ligand nanoparticles; type: in vivo; settings: weekly from day 0, 45 femtomoles of nanoparticles, FIG. 7
Procedure: FIG. 7 is a line graph showing modulation of EAE by AHR-ligand nanoparticles. EAE was induced in B6 mice (n=5), the mice were treated with nanoparticles weekly starting from day 0, and the animals were followed for signs of EAE.
To investigate the in vivo functionality of AHR-ligand loaded nanoparticles EAE was induced on naïve C57BL/6 mice and treated them, starting at day 0, weekly with 45 femtomoles of nanoparticles.

[5] = test system: Hep3b cells; experiment: In vivo model of hepatocellular carcinoma (Hep3b cells in athymic nude mouse reconstituted with splenocytes)
Procedure: FIGS. 3A and 3B are bar graphs illustrating AFP levels in HCC tumor models treated with FICZ (3A) or FICZ plus HBSAg (3B).
In this example the effects of FICZ administration on Hepatocellular Carcinoma were evaluated in a mouse model of cancer.
The present study used athymic nude mouse (N=7), a type of laboratory mouse that is hairless, lacks a normal thymus gland, and has a defective immune system because of a genetic mutation.
100 ug of frozen FICZ (BIOMOL International, Plymouth Meeting, Pa.) was dissolved in 5 ml of CREMOPHOR™ (polyethoxylated castor oil):ethanol in phosphate buffered saline (PBS), to produce a working solution of 20 ug/ml. 250 ul (5 ug total) of HBs antigen was injected in Treatment Group C. The experiments were carried out as follows:
Tumor sizes were measured in three dimensions using Vernier calipers and tumor volume was computed assuming a spherical geometry with radius equal to one-half the average tumor dimension: TV (mm^3)=d^2×D/2. Tumors were measured two times a week and mice were monitored routinely to evaluate the effects of treatment.
In addition, serum AFP levels were monitored; AFP is an accepted tumor marker of HCC.

[6] = test system: T cells; experiment: Th17 differentiation of T cells with antibodies to CD3 and CD28, TGF-beta and IL-21; IL-17 by real time PCR; type: cell-based; settings: 100 nM, compared with FICZ, FIG. 9
Procedure: FIG. 9 is a bar graph T cells differentiation into Th17 cells by in vitro activation with antibodies to CD3 and CD28 in the presence of TGF-beta and IL-21, in the presence of or not of showing beta-naphthoflavone (bNF) or FICZ (100 nM). IL-17 production was measured by real time PCR.
Briefly, T cells were differentiated into Th17 cells by in vitro activation with antibodies to CD3 and CD28 in the presence of TGF-beta and IL-21 as described (Nature 2008; 454(7202):350-2), in the presence or not of bNF or FICZ (100 nM). IL-17 production was measured by real time PCR.

[7] = molecular target: T1, AHR (Homo sapiens, UniProt P35869); experiment: AHR reporter luciferase construct in HEK 293 cells (dual luciferase assay); type: cell-based; settings: different concentrations, normalised to Tk-Renilla, FIG. 8
T1 construct: endogenous in cells
T1 sequence (P35869 11-848): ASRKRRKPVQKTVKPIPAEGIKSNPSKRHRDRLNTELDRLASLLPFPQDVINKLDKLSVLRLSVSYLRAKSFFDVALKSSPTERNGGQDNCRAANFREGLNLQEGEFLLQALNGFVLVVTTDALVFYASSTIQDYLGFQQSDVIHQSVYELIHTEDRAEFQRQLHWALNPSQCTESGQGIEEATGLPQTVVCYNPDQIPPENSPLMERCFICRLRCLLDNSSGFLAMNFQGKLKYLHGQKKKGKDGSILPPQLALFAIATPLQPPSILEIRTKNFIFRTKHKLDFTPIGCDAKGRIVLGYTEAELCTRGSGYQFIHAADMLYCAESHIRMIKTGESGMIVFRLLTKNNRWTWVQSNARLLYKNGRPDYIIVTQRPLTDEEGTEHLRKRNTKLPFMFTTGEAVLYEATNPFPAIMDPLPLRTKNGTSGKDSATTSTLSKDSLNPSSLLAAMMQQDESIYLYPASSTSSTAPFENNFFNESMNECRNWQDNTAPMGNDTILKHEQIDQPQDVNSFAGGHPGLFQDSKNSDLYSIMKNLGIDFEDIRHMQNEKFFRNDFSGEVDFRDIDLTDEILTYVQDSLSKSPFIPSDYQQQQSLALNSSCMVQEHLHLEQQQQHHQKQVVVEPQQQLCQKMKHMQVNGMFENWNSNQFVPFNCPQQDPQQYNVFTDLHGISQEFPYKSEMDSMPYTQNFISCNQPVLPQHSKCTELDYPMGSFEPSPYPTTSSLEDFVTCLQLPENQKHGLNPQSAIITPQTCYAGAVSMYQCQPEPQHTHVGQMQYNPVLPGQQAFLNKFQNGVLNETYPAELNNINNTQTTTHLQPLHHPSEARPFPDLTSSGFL
Procedure: FIG. 8 is a bar graph showing fluorescence in 293 cells transfected with an AHR reporter luciferase construct and a TK-Renilla Luciferase construct for normalization purposes. The cells were incubated with different concentrations of the AHR ligand TCDD and activation of the AHR reporter was followed by monitoring fluorescence from the luciferase.
A construct coding for Foxp3 fused to Renilla luciferase (Ren) was created to provide a simple assay to identify compounds that increase expression of AHR (and thus increase luciferase expression and fluorescence as compared to a control) or that decrease expression of AHR (and thus decrease luciferase expression and fluorescence as compared to a control). HEK 293 cells were transfected as described (Bettelli et al., Proc Natl Acad Sci USA 102, 5138-5143 (2005)) with the AHR reporter luciferase construct and a TK-Renilla Luciferase construct for normalization purposes.
The cells were incubated with different concentrations of the AHR ligand
TCDD and activation of the AHR reporter was assayed using the dual luciferase assay kit ([…].). Tk-Renilla was used for standardization.

[8] = test system: zebrafish embryos; experiment: zFoxp3 and IL-17 expression in developing zebrafish embryos; type: in vivo, zebrafish (Danio rerio); settings: treatment of developing zebrafish embryos
Source text: FIG. 4D is a bar graph showing the effect of a specific morpholino antisense oligonucleotide against Foxp3 on IL-17 expression in zebrafish.
Zebrafish eggs were collected within 1 hr of spawning, and purified plasmids or morpholino antisense oligonucleotides were microinjected with a fine glass needle connected to an automatic injector. A morpholino oligonucleotide designed to block the translation of zFoxp3 (5′-[…]-3′) and a 5 bases mismatch control oligonucleotide (5′-GTcTTCgAGTAcCATTAAcAAGgAT-3′) were designed and synthesized by Gene Tools (Philomath, Oreg.). Each morpholino nucleotide was injected into the yolk of embryos at one to four cell stages.

## O=Cc1c2c(cc3c1=Nc1ccccc1-3)=Nc1ccccc1-2 [FICZ, 6-formylindolo[3,2-b]carbazole]
[1]; EAE mice
  Mean day of onset (Mean ± SD): 13.3 ± 1.5
  Mean maximum score (mean ± SD): 2.7 ± 1.8
[1]; mice, single dose of 1 μg/mouse, FIG. 2A
  EAE development: significant worsening of EAE; also recorded: worsens EAE
[1]; splenocytes from treated EAE mice, FIG. 2E
  frequency of CD4+Foxp3+ Treg: decrease in the frequency
[1]; splenocytes from treated EAE mice, FIGS. 2C, 2D
  frequencies of IL-17+ CD4+ and CD4+IFNγ+ T cells: increased frequencies
[1]; splenocytes from treated mice, in vitro stimulation with MOG35-55, FIG. 2B
  secretion of IL-17 and IFNγ: increased secretion
[2]
  differentiation of Treg triggered by TGFβ1: interfered with the differentiation of Treg
[3]; FICZ alone, four days, FIG. 1E
  expression levels of the TH17 transcription factor RORγt: did not significantly upregulate
[3]; with TGFβ1, IL-6 and IL-23, four days, FIGS. 1F-1H
  TH17 differentiation in vitro (IL-17+ T cells, IL-17, IL-21, IL-22 levels): synergized with TGFβ1, IL-6 and IL-23 to drive TH17 differentiation
[4]
  EAE development: worsened the disease
[5]; IP twice a week, caliper measurement
  tumor growth (tumor volume): suppressed tumor growth
[5]; seven and 14 days after treatment initiation, FIGS. 3A, 3B
  tumor growth as measured by serum AFP levels: significantly suppresses tumor growth

## O=c1cc(-c2ccccc2)oc2ccc3ccccc3c12 [bNF, beta-naphthoflavone]
[6]
  T cell differentiation into TH17 cells (IL-17 production by real time PCR): same effect

## Clc1cc2c(cc1Cl)Oc1cc(Cl)c(Cl)cc1O2 [TCDD, 2,3,7,8-tetrachlorodibenzo-p-dioxin]
[7]
  expression of the AHR reporter: dose-dependent increases
[8]
  IL-17 expression: down regulation
  zFoxp3 expression: dose-dependent increase
[4]
  EAE development: complete suppression of EAE

## Oc1ccc(C=Cc2cc(O)cc(O)c2)cc1 [resveratrol]
[3]; AHR antagonist added, FIG. 1I
  effect on FICZ synergism in TH17 differentiation: blocked
